Measured values taken from ChEMBL document CHEMBL5214996, “Design, Synthesis, and Pharmacological Evaluation of Second-Generation Soluble Adenylyl Cyclase (sAC, ADCY10) Inhibitors with Slow Dissociation Rates” (J Med Chem, 2022).
Converted amounts (≈) assume the structure as drawn.

Columns and labels:
[1] = target: T1, Adenylate cyclase type 10 (Homo sapiens, UniProt Q96PN6)
[2] = target: Adenylate cyclase type 10 (Rattus norvegicus, UniProt Q9Z286); test: Inhibition of rat ADCY10 overexpressed […] assessed as IBMX stimulated cAMP accumulation preincubated for 10 mins followed by IBMX stimulation and measured after 5 mins by ELISA; format: cell-based, 4-4 cell
Adenylate cyclase type 10 (Rattus norvegicus, UniProt Q9Z286), sequence (Q9Z286 whole entry): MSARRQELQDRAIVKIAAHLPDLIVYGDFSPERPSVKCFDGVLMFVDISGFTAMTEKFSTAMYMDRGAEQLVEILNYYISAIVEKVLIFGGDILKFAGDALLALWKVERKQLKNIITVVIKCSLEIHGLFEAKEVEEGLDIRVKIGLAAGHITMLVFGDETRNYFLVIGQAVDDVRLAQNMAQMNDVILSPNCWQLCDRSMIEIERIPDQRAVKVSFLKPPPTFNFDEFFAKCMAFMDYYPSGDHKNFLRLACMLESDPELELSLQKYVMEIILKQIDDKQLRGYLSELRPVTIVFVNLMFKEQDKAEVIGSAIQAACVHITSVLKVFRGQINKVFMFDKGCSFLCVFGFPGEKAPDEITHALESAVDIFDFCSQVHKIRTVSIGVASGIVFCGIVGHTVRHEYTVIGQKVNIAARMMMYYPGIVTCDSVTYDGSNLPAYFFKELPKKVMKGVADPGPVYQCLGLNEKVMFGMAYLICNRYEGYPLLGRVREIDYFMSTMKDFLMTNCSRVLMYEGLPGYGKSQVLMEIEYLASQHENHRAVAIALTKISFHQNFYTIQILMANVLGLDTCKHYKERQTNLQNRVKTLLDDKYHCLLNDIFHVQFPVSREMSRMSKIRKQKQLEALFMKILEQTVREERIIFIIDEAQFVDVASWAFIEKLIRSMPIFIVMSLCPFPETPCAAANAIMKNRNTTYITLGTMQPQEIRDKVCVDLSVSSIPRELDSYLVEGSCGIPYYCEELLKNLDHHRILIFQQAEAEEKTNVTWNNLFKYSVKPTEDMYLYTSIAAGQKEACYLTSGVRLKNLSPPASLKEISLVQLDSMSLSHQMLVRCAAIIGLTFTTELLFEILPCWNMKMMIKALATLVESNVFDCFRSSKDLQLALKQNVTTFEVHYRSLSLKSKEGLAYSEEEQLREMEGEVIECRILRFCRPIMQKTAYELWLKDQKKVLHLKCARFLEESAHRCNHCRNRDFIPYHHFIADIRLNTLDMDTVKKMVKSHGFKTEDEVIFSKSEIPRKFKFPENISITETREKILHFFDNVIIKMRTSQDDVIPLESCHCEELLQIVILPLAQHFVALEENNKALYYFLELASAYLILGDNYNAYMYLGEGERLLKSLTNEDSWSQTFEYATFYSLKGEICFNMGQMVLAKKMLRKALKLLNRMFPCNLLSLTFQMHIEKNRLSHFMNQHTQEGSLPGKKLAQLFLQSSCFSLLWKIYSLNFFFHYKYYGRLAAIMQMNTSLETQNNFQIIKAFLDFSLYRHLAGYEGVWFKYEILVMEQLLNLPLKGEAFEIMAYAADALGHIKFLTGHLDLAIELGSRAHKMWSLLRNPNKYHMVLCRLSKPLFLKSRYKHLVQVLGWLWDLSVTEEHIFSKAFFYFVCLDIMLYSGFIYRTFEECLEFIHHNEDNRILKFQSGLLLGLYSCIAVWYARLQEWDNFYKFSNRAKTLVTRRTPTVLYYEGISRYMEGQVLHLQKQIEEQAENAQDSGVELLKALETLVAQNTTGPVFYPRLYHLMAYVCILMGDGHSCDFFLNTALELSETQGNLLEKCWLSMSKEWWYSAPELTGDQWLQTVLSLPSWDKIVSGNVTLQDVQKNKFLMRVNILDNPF

[3] = AUC(0 to 24 hrs) in CD-1 mouse at 50 mg/kg,po and measured upto 24 hrs by LC-MS analysis; format: ADME, organism-based; parameters: time < 24 hrs, dose 50 mg/kg, route po; conditions: in vivo
[4] = Kinetic solubility of compound by UV spectroscopy analysis; format: physicochemical; conditions: read-out: Kinetic_solubility
[5] = 1-Octanol/water partition coefficient, logD of the compound at pH 7.4 by chromatographic analysis; format: physicochemical
[6] = Tmax in CD-1 mouse at 10 mg/kg,po and measured upto 24 hrs by LC-MS analysis; format: ADME, organism-based; conditions: in vivo
[7] = AUC(0 to 24 hrs) in CD-1 mouse at 2 mg/kg,iv and measured upto 24 hrs by LC-MS analysis; format: ADME, organism-based; parameters: dose 2 mg/kg, time < 24 hrs, route iv; conditions: in vivo
[8] = Oral bioavailability in CD-1 mouse at 10 mg/kg and measured upto 24 hrs by LC-MS analysis; format: ADME, organism-based; conditions: in vivo
[9] = AUC(0 to 24 hrs) in CD-1 mouse at 10 mg/kg,po and measured upto 24 hrs by LC-MS analysis; format: ADME, organism-based; parameters: time < 24 hrs, dose 10 mg/kg, route po; conditions: in vivo
[10] = Cytotoxicity against […] at <20 uM; format: toxicity, cell-based; conditions: 4-4 cell
[11] = Cmax in CD-1 mouse at 50 mg/kg,po and measured upto 24 hrs by LC-MS analysis; format: ADME, organism-based; parameters: time < 24 hrs, dose 50 mg/kg, route po; conditions: in vivo
[12] = Permeability of compound at pH 7.4 at 10 uM incubated for 3 hrs by PAMPA based LC/MS/MS analysis; format: ADME; conditions: pH 7.4, 3 h
[13] = Half life in CD-1 mouse at 2 mg/kg,iv and measured upto 24 hrs by LC-MS analysis; format: ADME, organism-based; conditions: in vivo
[14] = Tmax in CD-1 mouse at 50 mg/kg,po and measured upto 24 hrs by LC-MS analysis; format: ADME, organism-based; conditions: in vivo
[15] = Cmax in CD-1 mouse at 2 mg/kg,iv and measured upto 24 hrs by LC-MS analysis; format: ADME, organism-based; parameters: time < 24 hrs, dose 2 mg/kg, route iv; conditions: in vivo
[16] = Cmax in CD-1 mouse at 10 mg/kg,po and measured upto 24 hrs by LC-MS analysis; format: ADME, organism-based; parameters: dose 10 mg/kg, time < 24 hrs, route po; conditions: in vivo
[17] = target: T1, Adenylate cyclase type 10; remark: listed apart in the source
Description: Binding affinity to human recombinant His-tagged ADCY10 assessed as dissociation constant and measured for 600 sec by SPR analysis

T1 sequence (Q96PN6 whole entry): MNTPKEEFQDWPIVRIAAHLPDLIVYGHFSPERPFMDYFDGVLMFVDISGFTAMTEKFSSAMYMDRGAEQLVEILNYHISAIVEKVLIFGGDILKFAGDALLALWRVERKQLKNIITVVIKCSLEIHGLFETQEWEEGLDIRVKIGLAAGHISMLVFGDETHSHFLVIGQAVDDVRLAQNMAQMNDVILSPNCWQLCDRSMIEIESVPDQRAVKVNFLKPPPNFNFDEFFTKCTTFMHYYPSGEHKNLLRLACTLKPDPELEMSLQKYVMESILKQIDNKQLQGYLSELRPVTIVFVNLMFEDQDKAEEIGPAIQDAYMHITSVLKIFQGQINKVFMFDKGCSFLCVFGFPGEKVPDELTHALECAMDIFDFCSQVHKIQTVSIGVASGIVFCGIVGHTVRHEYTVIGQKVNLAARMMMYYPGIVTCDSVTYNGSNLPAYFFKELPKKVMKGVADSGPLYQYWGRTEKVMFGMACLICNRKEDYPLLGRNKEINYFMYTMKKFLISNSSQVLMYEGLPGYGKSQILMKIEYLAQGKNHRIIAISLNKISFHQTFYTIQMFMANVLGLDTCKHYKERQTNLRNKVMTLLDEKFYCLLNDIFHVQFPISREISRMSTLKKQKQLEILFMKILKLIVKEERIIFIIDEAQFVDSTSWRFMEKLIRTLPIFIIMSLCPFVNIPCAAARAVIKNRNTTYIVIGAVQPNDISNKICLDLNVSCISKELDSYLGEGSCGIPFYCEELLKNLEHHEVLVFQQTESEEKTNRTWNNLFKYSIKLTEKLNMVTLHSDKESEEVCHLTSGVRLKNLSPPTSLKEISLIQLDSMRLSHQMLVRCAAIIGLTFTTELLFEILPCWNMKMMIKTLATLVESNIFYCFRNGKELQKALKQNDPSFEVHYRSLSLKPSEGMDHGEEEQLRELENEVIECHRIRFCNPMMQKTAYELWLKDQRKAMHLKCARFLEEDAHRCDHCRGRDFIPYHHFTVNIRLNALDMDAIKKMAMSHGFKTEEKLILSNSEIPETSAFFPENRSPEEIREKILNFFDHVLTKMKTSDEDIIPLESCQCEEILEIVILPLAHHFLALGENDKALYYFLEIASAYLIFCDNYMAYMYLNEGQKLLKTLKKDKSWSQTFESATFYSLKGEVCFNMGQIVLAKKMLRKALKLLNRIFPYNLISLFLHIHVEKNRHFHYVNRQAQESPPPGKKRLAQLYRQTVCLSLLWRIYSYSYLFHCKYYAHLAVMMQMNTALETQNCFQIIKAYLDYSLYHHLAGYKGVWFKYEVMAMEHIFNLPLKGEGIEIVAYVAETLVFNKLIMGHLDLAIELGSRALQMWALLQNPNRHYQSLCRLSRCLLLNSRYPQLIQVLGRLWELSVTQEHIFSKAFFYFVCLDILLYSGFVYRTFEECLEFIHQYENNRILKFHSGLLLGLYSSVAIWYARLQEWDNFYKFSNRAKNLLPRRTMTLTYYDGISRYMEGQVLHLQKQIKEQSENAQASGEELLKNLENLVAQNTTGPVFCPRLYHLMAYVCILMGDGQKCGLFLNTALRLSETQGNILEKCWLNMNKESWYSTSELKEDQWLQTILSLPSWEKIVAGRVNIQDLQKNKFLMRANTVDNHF

SMILES	IC50 [2] [nM]	IC50 [1] [nM]	further results
Nc1nc(Cl)cc(-c2nn(C(F)F)cc2Cc2ccccc2)n1	–	829	–
CNC(=O)c1ccccc1Cc1cn(C)nc1-c1cc(Cl)nc(N)n1	–	1240	–
Nc1nc(Cl)cc(-c2nc3ccccn3c2Cc2ccccc2)n1	–	716	–
Cn1cc(Cc2cccc(Cl)c2)c(-c2cc(Cl)nc(N)n2)n1	–	389	–
Nc1nc(Cl)cc(-c2nn3ccccc3c2Cc2ccccc2)n1	–	112	–
CNC(=O)c1cccc(Cc2cn(C)nc2-c2cc(Cl)nc(N)n2)c1	–	1880	–
Nc1nc(Cl)cc(-c2nn(C(F)F)cc2Cc2ccccc2OCCN2CCOC[C@H]2CO)n1	–	–	AUC [3]: 5.46 µM·h; solubility kinetic [4]: 79 µg/mL (≈ 160 µM); logD [5]: 2.89; Tmax [6]: 15 min; AUC [7]: 0.78 µM·h; F [8]: 11%; AUC [9]: 0.41 µM·h; Activity [10]: Non-Toxic; Cmax [11]: 6.1 µM; permeability [12]: 463 nm/s; t1/2 [13]: 55.8 min; Tmax [14]: 15 min; Cmax [15]: 2500 nM; Cmax [16]: 450 nM
COc1ccccc1Cc1cn(C)nc1-c1cc(Cl)nc(N)n1	–	67	–
Cn1cc(Cc2ccc(Cl)cc2)c(-c2cc(Cl)nc(N)n2)n1	–	2580	–
Nc1nc(Cl)cc(-c2nn(C(F)F)cc2Cc2ccccc2OCC(=O)N2CCOCC2)n1	37.7	24.2	Kd [17]: 4.7 nM
Cn1cc(Cc2ccccc2Cl)c(-c2cc(Cl)nc(N)n2)n1	–	64	–

Continued, in another order:

IC50 [2] [nM]	SMILES	IC50 [1] [nM]	further results
14.6	Nc1nc(Cl)cc(-c2nn(C(F)F)cc2Cc2ccccc2OCCN2CCS(=O)(=O)CC2)n1	–	–
1.9	Nc1nc(Cl)cc(-c2nn(C(F)F)cc2Cc2ccccc2OCCN2CCOCC2)n1	–	–
16.7	CC1(O)CCN(CCOc2ccccc2Cc2cn(C(F)F)nc2-c2cc(Cl)nc(N)n2)CC1	–	–
5.5	Nc1nc(Cl)cc(-c2nn(C(F)F)cc2Cc2ccccc2OCCN2CCNC(=O)C2)n1	–	–
22.9	Nc1nc(Cl)cc(-c2nn(C(F)F)cc2Cc2ccccc2OCCN2CCO[C@H](CO)C2)n1	–	–
34.8	Nc1nc(Cl)cc(-c2nn(C(F)F)cc2Cc2ccccc2OCCN2CCO[C@@H](CO)C2)n1	–	–
2.5	COC(=O)[C@H]1COCCN1CCOc1ccccc1Cc1cn(C(F)F)nc1-c1cc(Cl)nc(N)n1	–	–
